The test concerns MDA-MB-231 breast cancer cells. Kind of test: Caspase 3/7 assay (Muse). The note with it: MDA-MB-231, 2.5 µM, 48 h (DMSO 6.2). Format: cell-based, human. The procedure: Figure 8 DJ4 analogs induce cell cycle arrest and apoptotic cell death in MDA-MB-231 breast cancer cells. (A) DJ4 analogs induce cell cycle arrest in MDA-MB-231 breast cancer cells. To study the cell cycle arrest by DJ4 analogs, serum-starved cell cycle-synchronized MDA-MB-231 cells were treated with 2.5 µM concentration of each compound for 24 h and stained with propidium iodide. Treatment with all the analogs, except DJ-Morpholine, induced significant arrest of cells in G2/M phase of cell cycle. (B) Apoptotic cell death by DJ4 analogs was evaluated by measuring caspase 3/7 activation in breast cancer cells. Cells were treated with 2.5 µM concentration of each compound for 48 h and incubated with fluorescent dye. All the compounds except DJ-Morpholine induced significant apoptotic cell death. TEXT PRINTED IN THE PICTURE: (A) DMSO: G1 : 48.40%; S : 44%; G2/M: 7.60% | (A) DJ4: G1 : 27.41%; S : 38.58%; G2/M: 34.01% | (A) DJ-Allyl: G1 : 15.94%; S : 55.51%; G2/M: 28.54% | (A) DJE4: G1 : 19.14%; S : 58.48%; G2/M: 22.37% | (A) DJ110: G1 : 19.16%; S : 38.39%; G2/M: 42.51% | (A) DJ-Morpholine: G1 : 43.16%; S : 51.10%; G2/M: 5.74% | (B) DMSO: Dead 3.10 %; Apoptotic/Dead 4.40 %; 6.2; 1.75 % Apoptotic | (B) DJ4: Dead 5.45 %; Apoptotic/Dead 36.80 %; 52.9; 41.65 % Live; 16.10 % Apoptotic | (B) DJ-Allyl: Dead 3.05 %; Apoptotic/Dead 9.90 %; 18.1; 78.90 % Live; 8.15 % Apoptotic | (B) DJE4: Dead 1.85 %; Apoptotic/Dead 8.15 %; 13.4; 84.75 % Live; 5.25 % Apoptotic | (B) DJ110: Dead 9.05 %; Apoptotic/Dead 56.60 %; 64.4; 26.60 % Live; 7.75 % Apoptotic | (B) DJ-Morpholine: Dead 1.90 %; Apoptotic/Dead 5.00 %; 8.0; 90.10 % Live; 3.00 % Apoptotic DOUBTS OF THE COPYIST ABOUT THIS PICTURE: Panel A: the print is very small and blurred, so 3, 5, 6, 8 and 9 cannot be told apart with certainty in any of its values / A, DMSO: G1 48.40% or 46.40%; S 44% (a decimal part may be hidden); G2/M 7.60% or 7.80% / A, DJ4: G1 27.41%; S 38.58% or 38.98%; G2/M 34.01% uncertain / A, DJ-Allyl: G1 15.94%; S 55.51% or 53.51%; G2/M 28.54% or 26.54% uncertain / A, DJE4: G1 19.14%; S 58.48% or 58.46%; G2/M 22.37% uncertain / A, DJ110: G1 19.16% or 19.18%; S 38.39% or 38.33%; G2/M 42.51% uncertain / A, DJ-Morpholine: G1 43.16%; S 51.10%; G2/M 5.74% uncertain / B, DMSO, Live: the value is hidden by data points (only '.75 %' can be read, perhaps 90.75 or 89.75), so it is left out / B, DJ4, Live: partly hidden by data points, 41.65 is the best reading / B, DJ-Allyl, Live: partly hidden by data points, 78.90 or 76.90 / B, DJE4, Live: partly hidden by data points, 84.75 or 64.75 / B, DJ110, Live: partly hidden by data points, 26.60 or 28.60 / B, DJ-Morpholine, Live: partly hidden by data points, 90.10 or 20.10 / B: the large bold numbers (6.2, 52.9, 18.1, 13.4, 64.4, 8.0) are printed with no measure or unit
To determine whether the active analogs induce apoptotic cell death similar to the DJ4 parent compound, we treated MDA-MB-231 breast cancer cells with 2.5 µM concentration of all the analogs for 48 h (Figure 8). The cells were then analyzed for activation of caspase 3/7 (a marker for apoptotic cell death) and propidium iodide (a marker of cell membrane integrity) using the Muse^TM (EMD Millipore) two color bench-top flow cytometer. […]
To examine whether the selected compounds induce apoptosis, we treated MDA-MB-231 breast cancer cells with 5 µM of each compound. […] The data were quantified by using FlowJo software (version 10).
On to `O=C1N/C(=N\CCc2ccccc2)S/C1=C/c1c[nH]c2ncccc12` [DJ4], for which the “apoptosis (Q2 + Q3), caspase 3/7” value was 52.9%. With `O=C1N/C(=N\Cc2ccccc2)S/C1=C/c1c[nH]c2ncccc12` [DJ110] the figure was 64.4%; with `C=CC/N=C1\NC(=O)/C(=C\c2c[nH]c3ncccc23)S1` [DJ-Allyl], 18.1%. With `O=C1N/C(=N\CCN2CCOCC2)S/C1=C/c1c[nH]c2ncccc12` [DJ-Morpholine] the figure was 8%; with `CC/N=C1\NC(=O)/C(=C\c2c[nH]c3ncccc23)S1` [DJE4], 13.4%.

Source of the values: publication PMC10458458, “Characterization of Anticancer Effects of the Analogs of DJ4, a Novel Selective Inhibitor of ROCK and MRCK Kinases” (Pharmaceuticals, 2023).
